Laboratory results published in patent US11214594B2, “Antimicrobial peptide having synergistic antibacterial effect with antibiotics on multidrug resistant bacteria, and use thereof” (priority 2016, dated 2022).
Read-outs that look alike come from different tables or passages of the source. Where a SMILES comes first, the peptide text is derived from it.

Columns and labels:
A. baumannii [1] = test: MIC of antibiotic during combined treatment with antimicrobial peptide; type: cell-based, Acinetobacter baumannii; conditions: A. baumannii; combined with peptide at 64 μg/ml
Outline: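 Antibiotic diluted in MH medium, dispensed per well with peptide; setup repeated with roles reversed; MIC read per combination.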

MDRAB 12035 [2] = test: as above; type: cell-based, Acinetobacter baumannii
Outline: (§1)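 Antibiotic MIC came from antibiotic dilutions added to bacteria (2×10^6 CFU/ml, MH medium) already combined with peptide serially diluted 2:1 from its own MIC. Swapping the roles of the two agents gave the peptide MIC.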

E. coli = type: cell-based, Escherichia coli; conditions: E. coli
Outline: as §1

MDREC 1229 = type: cell-based, Escherichia coli
Outline: as §1

A. baumannii [3] = test: MIC of antimicrobial peptide during combined treatment with antibiotic; type: cell-based, Acinetobacter baumannii
Outline: as §1

MDRAB 12035 [4] = test: as above; type: cell-based, Acinetobacter baumannii
Outline: as §1

[5] = peptide treatment concentration 1 μg/ml
[6] = peptide treatment concentration 2 μg/ml
[7] = peptide treatment concentration 4 μg/ml
[8] = peptide treatment concentration 6 μg/ml
[9] = peptide treatment concentration 8 μg/ml
[10] = peptide treatment concentration 16 μg/ml
[11] = peptide treatment concentration 32 μg/ml
[12] = peptide treatment concentration 64 μg/ml
[13] = with Erythromycin […] (Conc./MIC 1)
[14] = erythromycin 4 μg/ml (Conc./MIC 1/8)
[15] = erythromycin 8 μg/ml (Conc./MIC 1/4)
[16] = erythromycin 16 μg/ml (Conc./MIC 1/2)
[17] = erythromycin 32 μg/ml (Conc./MIC 1)
[18] = vancomycin 512 μg/ml (Conc./MIC 1/2)
[19] = vancomycin 1024 μg/ml (Conc./MIC 1)

CC[C@H](C)[C@H](NC(=O)[C@H](CCCCN)NC(=O)[C@H](Cc1c[nH]c2ccccc12)NC(=O)[C@@H](N)CCCNC(=N)N)C(=O)N[C@@H](Cc1ccccc1)C(=O)N[C@@H](CCCCN)C(=O)N[C@@H](CCCCN)C(=O)N[C@H](C(=O)N1CCC[C@H]1C(=O)N[C@@H](CCCCN)C(=O)N[C@@H](CC(C)C)C(=O)N[C@@H](CC(C)C)C(=O)N[C@@H](Cc1c[nH]cn1)C(=O)N[C@@H](CO)C(=O)N[C@@H](CC(C)C)C(=O)N[C@@H](CCCCN)C(=O)N[C@@H](CCCCN)C(=O)N[C@@H](Cc1c[nH]c2ccccc12)C(N)=O)[C@@H](C)CC [PapMA-10, RWK IFK KIP KLL HSL KKW-NH2] (H-RWKIFKKIPKLLHSLKKW-NH2; N-terminus assumed)
>128 µg/mL: Linezolid MIC during combined treatment with peptide (MDRAB 12035 [2]; [5]) | Vancomycin MIC during combined treatment with peptide (MDRAB 12035 [2]; [5]) | Linezolid MIC during combined treatment with peptide (MDRAB 12035 [2]; [6]) | Vancomycin MIC during combined treatment with peptide (MDRAB 12035 [2]; [6])
32 µg/mL: Erythromycin MIC during combined treatment with peptide (MDRAB 12035 [2]; [5]) | Erythromycin MIC during combined treatment with peptide (MDRAB 12035 [2]; [6]) | Linezolid MIC during combined treatment with peptide (MDRAB 12035 [2]; [8]) | Vancomycin MIC during combined treatment with peptide (MDRAB 12035 [2]; [8])
16 µg/mL: Erythromycin MIC during combined treatment with peptide (MDRAB 12035 [2]; [7]) | Linezolid MIC during combined treatment with peptide (MDRAB 12035 [2]; [9]) | Vancomycin MIC during combined treatment with peptide (MDRAB 12035 [2]; [9]) | Peptide MIC during treatment with erythromycin (MDRAB 12035 [4]; [14])
8 µg/mL: Erythromycin MIC during combined treatment with peptide (MDRAB 12035 [2]; [8]) | Erythromycin MIC during combined treatment with peptide (MDRAB 12035 [2]; [9]) | Linezolid MIC during combined treatment with peptide (MDRAB 12035 [2]; [10]) | Peptide MIC during treatment with antibiotic (A. baumannii [3]; [14]) | Peptide MIC during treatment with antibiotic (A. baumannii [3]; linezolid 32 μg/ml (Conc./MIC 1/8)) | Peptide MIC during treatment with erythromycin (MDRAB 12035 [4]; [15])
64 µg/mL: Linezolid MIC during combined treatment with peptide (MDRAB 12035 [2]; [7]) | Vancomycin MIC during combined treatment with peptide (MDRAB 12035 [2]; [7])
0 µg/mL: Antibiotic MIC, Vancomycin (A. baumannii [1]) | Erythromycin MIC during combined treatment with peptide (MDRAB 12035 [2]; [11]) | Erythromycin MIC during combined treatment with peptide (MDRAB 12035 [2]; [12]) | Linezolid MIC during combined treatment with peptide (MDRAB 12035 [2]; [12]) | Vancomycin MIC during combined treatment with peptide (MDRAB 12035 [2]; [12]) | Peptide MIC (E. coli; [13]) | Peptide MIC (E. coli; with Linezolid […] (Conc./MIC 1)) | Peptide MIC (E. coli; with Vancomycin 1024 μg/ml (Conc./MIC 1)) | Peptide MIC (MDREC 1229; [13]) | Peptide MIC (MDREC 1229; with Linezolid 512 μg/ml (Conc./MIC 1)) | Peptide MIC during treatment with antibiotic (A. baumannii [3]; [17]) | Peptide MIC during treatment with antibiotic (A. baumannii [3]; linezolid […] (Conc./MIC 1)) | Peptide MIC during treatment with antibiotic (A. baumannii [3]; [19]) | Peptide MIC during treatment with erythromycin (MDRAB 12035 [4]; [17]) | Peptide MIC during treatment with linezolid (MDRAB 12035 [4]; linezolid 512 μg/ml (Conc./MIC 1))
1 µg/mL: Peptide MIC during treatment with antibiotic (A. baumannii [3]; [18]) | Peptide MIC during treatment with antibiotic (A. baumannii [3]; vancomycin […] (Conc./MIC 1/4)) | Peptide MIC during treatment with vancomycin (MDRAB 12035 [4]; [19])
4 µg/mL: Erythromycin MIC during combined treatment with peptide (MDRAB 12035 [2]; [10]) | Vancomycin MIC during combined treatment with peptide (MDRAB 12035 [2]; [10]) | Vancomycin MIC during combined treatment with peptide (MDRAB 12035 [2]; [11]) | Peptide MIC during treatment with antibiotic (A. baumannii [3]; [15]) | Peptide MIC during treatment with antibiotic (A. baumannii [3]; linezolid 64 μg/ml (Conc./MIC 1/4)) | Peptide MIC during treatment with antibiotic (A. baumannii [3]; linezolid […] (Conc./MIC 1/2)) | Peptide MIC during treatment with antibiotic (A. baumannii [3]; vancomycin […] (Conc./MIC 1/8)) | Peptide MIC during treatment with erythromycin (MDRAB 12035 [4]; [16]) | Peptide MIC during treatment with linezolid (MDRAB 12035 [4]; linezolid 64 μg/ml (Conc./MIC 1/8)) | Peptide MIC during treatment with vancomycin (MDRAB 12035 [4]; vancomycin […] (Conc./MIC 1/4)) | Peptide MIC during treatment with vancomycin (MDRAB 12035 [4]; vancomycin […] (Conc./MIC 1/8))
2 µg/mL: Linezolid MIC during combined treatment with peptide (MDRAB 12035 [2]; [11]) | Peptide MIC during treatment with antibiotic (A. baumannii [3]; [16]) | Peptide MIC during treatment with linezolid (MDRAB 12035 [4]; linezolid […] (Conc./MIC 1/2)) | Peptide MIC during treatment with linezolid (MDRAB 12035 [4]; linezolid […] (Conc./MIC 1/4)) | Peptide MIC during treatment with vancomycin (MDRAB 12035 [4]; [18])
